Experiment [1] relates to Mus musculus. Description: Inhibition of acute experimental autoimmune encephalomyelitis in SJL/N mice by 0.2 mg/kg/day p.o./s.c. The experiment is classed as functional. Conditions: po.
Experiment [2] relates to Mus musculus. Nature of the experiment: Inhibition of acute experimental autoimmune encephalomyelitis (aEAE) in SJL/N mice at a dose of 1 mg/kg/day, (po/sc) was determined. The class given is functional.
For experiment [3], the system named is Mus musculus. Description: Inhibition of acute experimental autoimmune encephalomyelitis (aEAE) in SJL/N mice at a dose of 5 mg/kg/day, (po/sc) was determined. The experiment is classed as functional.
The test system of experiment [4] is Mus musculus. Nature of the experiment: Inhibition of acute experimental autoimmune encephalomyelitis (aEAE) induced in SJL/N mice at a dose of 5 mg/kg/day, (po) was determined; Inactive. The class given is functional.
For experiment [5], the system named is Mus musculus. Description: Inhibition of acute experimental autoimmune encephalomyelitis (aEAE) induced in SJL/N mice at a dose of 5 mg/kg/day, (sc) was determined. The class given is functional.
The subject of experiment [6] is Mus musculus. Nature of the experiment: Inhibition of acute experimental autoimmune encephalomyelitis (aEAE) induced in SJL/N mice at a dose of 1 mg/kg/day, (sc) was determined; Inactive. The experiment is classed as functional.
The subject of experiment [7] is Mus musculus. Nature of the experiment: Inhibition of acute experimental autoimmune encephalomyelitis (aEAE) induced in SJL/N mice at a dose of 0.2 mg/kg/day, (sc) was determined; Inactive. The class given is functional.
For experiment [8], the system named is Mus musculus. Nature of the experiment: Inhibition of acute experimental autoimmune encephalomyelitis (aEAE) induced in SJL/N mice at a dose of 5 mg/kg/day was determined. The class given is functional.
Experiment [9] deals with Mus musculus. Description: Inhibition of acute experimental autoimmune encephalomyelitis (aEAE) induced in SJL/N mice at a dose of 1 mg/kg/day, (po) was determined; Inactive. The experiment is classed as functional.
Experiment [10] has as its system Mus musculus. Nature of the experiment: Inhibition of acute experimental autoimmune encephalomyelitis (aEAE) induced in SJL/N mice at a dose of 5 mg/kg/day, (po/sc) was determined; Inactive. The class given is functional.
Experiment [11] relates to Mus musculus. Nature of the experiment: Inhibition of acute experimental autoimmune encephalomyelitis (aEAE) induced in SJL/N mice at a dose of 1 mg/kg/day, (po/sc) was determined; Inactive. The class given is functional.
For experiment [12], the system named is Mus musculus. Nature of the experiment: Inhibition of acute experimental autoimmune encephalomyelitis in SJL/N mice by 1 mg/kg/day p.o./s.c. The experiment is classed as functional. Conditions: route oral.
Experiment [13] has as its system Mus musculus. Nature of the experiment: Inhibition of acute experimental autoimmune encephalomyelitis in SJL/N mice by 5 mg/kg/day p.o./s.c. The class given is functional. Conditions: route oral.
The subject of experiment [14] is Mus musculus. Nature of the experiment: Inhibition of acute experimental autoimmune encephalomyelitis (aEAE) induced in SJL/N mice at a dose of 0.2 mg/kg/day, (po/sc) was determined; Inactive. The experiment is classed as functional.
The test system of experiment [15] is Mus musculus. Nature of the experiment: Inhibition of acute experimental autoimmune encephalomyelitis (aEAE) induced in SJL/N mice at a dose of 0.2 mg/kg/day, (po) was determined; Inactive <35% inhibition. The experiment is classed as functional, organism-based.
Experiment [16] has as its system Mus musculus. Description: Inhibition of acute experimental autoimmune encephalomyelitis (aEAE) induced in SJL/N mice at a dose of 1 mg/kg/day, (po). The class given is functional.
In experiment [17] the test system is Mus musculus. Nature of the experiment: Inhibition of acute experimental autoimmune encephalomyelitis in SJL/N mice by 5 mg/kg/day p.o. The class given is functional. The note with it: route oral.

The source made the active and inactive calls. Where only a bound is given, the exact number is not on record here.

The inhibition in vivo is how much of the control response was suppressed. Lower therefore signals little suppression. Take `CN(C(=O)c1c(O)c2ccccc2n(C)c1=O)c1ccccc1` [ROQUINIMEX]: in the experiment on Mus musculus [1], the inhibition in vivo at 0.2 mg/kg/day stood at 35%. Also, the inhibition in vivo at 1 mg/kg/day in the experiment on Mus musculus [2] was 43%. Moreover, the inhibition in vivo at 5 mg/kg/day with Mus musculus [3] came to 71%.

`CN(C)c1ccc2c(c1)c(O)c(C(=O)N(C)c1ccccc1)c(=O)n2C` displayed an inhibition in vivo at 5 mg/kg/day in the experiment on Mus musculus [4] of less than 35%.

`CCOc1ccc2c(c1)c(O)c(C(=O)N(C)c1ccc(F)cc1)c(=O)n2C` came in with an inhibition in vivo at 5 mg/kg/day with Mus musculus [5] of 53%.

For the compound `CN(C(=O)c1c(O)c2cccc(F)c2n(C)c1=O)c1ccc(F)cc1`, in the experiment on Mus musculus [6], the inhibition in vivo at 1 mg/kg/day was less than 35%. Moreover, the inhibition in vivo at 0.2 mg/kg/day in the experiment with Mus musculus [7] is less than 35%. The compound also showed an inhibition in vivo at 5 mg/kg/day in the experiment on Mus musculus [8] of 55%.

As to `CN(C(=O)c1c(O)c2c(Oc3ccc(F)cc3)cccc2n(C)c1=O)c1ccccc1`, the inhibition in vivo at 1 mg/kg/day in the experiment with Mus musculus [9] is less than 35%. The same compound returned an inhibition in vivo at 5 mg/kg/day in the experiment with Mus musculus [4] of less than 35%.

`CN(C(=O)c1c(O)c2ccc(C(F)(F)F)cc2n(C)c1=O)c1ccc(F)cc1`: in the experiment with Mus musculus [5], the inhibition in vivo at 5 mg/kg/day stood at 35%.

Take `COc1ccc(N(C)C(=O)c2c(O)c3ccccc3n(C3CC3)c2=O)cc1`: the inhibition in vivo at 5 mg/kg/day in the experiment on Mus musculus [10] was less than 35%. Besides, the inhibition in vivo at 1 mg/kg/day in the experiment with Mus musculus [11] is less than 35%.

On to `CCN(C(=O)c1c(O)c2cc(Cl)ccc2n(C)c1=O)c1ccccc1`, for which the inhibition in vivo at 1 mg/kg/day in the experiment with Mus musculus [12] amounted to 62%. In the experiment on Mus musculus [13], this compound came in with an inhibition in vivo at 5 mg/kg/day of 83%. Further, in the experiment with Mus musculus [14], the inhibition in vivo at 0.2 mg/kg/day was less than 35%.

In the experiment on Mus musculus [9], `CCc1ccc2c(c1)c(O)c(C(=O)N(CC)c1ccccc1)c(=O)n2C` displayed an inhibition in vivo at 1 mg/kg/day of less than 35%. In the experiment on Mus musculus [4], the inhibition in vivo at 5 mg/kg/day was less than 35%.

In the experiment on Mus musculus [5], `Cc1ccc2c(O)c(C(=O)N(C)c3ccccc3)c(=O)n(C)c2c1` showed an inhibition in vivo at 5 mg/kg/day of 53%.

With `CCN(C(=O)c1c(O)c2c(C)cccc2n(C)c1=O)c1ccccc1`, in the experiment on Mus musculus [15], the inhibition entry is “inactive”. The compound also showed an inhibition in vivo at 1 mg/kg/day in the experiment with Mus musculus [16] of 65%. For the same compound, the inhibition in vivo at 5 mg/kg/day in the experiment with Mus musculus [17] is 85%.

(Values after ChEMBL document CHEMBL1149146, “Synthesis and biological evaluation of new 1,2-dihydro-4-hydroxy-2-oxo-3-quinolinecarboxamides for treatment of autoimmune disorders: structure-activity relationship” (2004).)
